Data: ChEMBL document CHEMBL5108080 (J Med Chem, 2022)
The source made the active and inactive calls. The calls are words filed in the database; no cut-off is given here.

Experiments:
Influenza A virus [1] = assay: Antiviral activity against group 2 influenza A H7N1 pseudotyped virus infected in A549 cells assessed as inhibition of viral entry incubated for 48 hrs by measuring luciferase activity by Neolite reporter gene assay; type: functional, organism-based; details: H7N1, A549, 48 h
[2] = Cytotoxicity against human A549 cells incubated for 48 hrs by celltiter-glo luminescent cell viability assay; type: toxicity, cell-based
[3] = Selectivity index, ratio of CC50 for human A549 cells to IC50 for group 2 influenza A H7N1 pseudotyped virus infected in A549 cells; type: toxicity, cell-based; details: read-out: Ratio CC50/IC50
[4] = Selectivity index, ratio of CC50 for human A549 cells to IC50 for […] influenza A H5N1 pseudotyped virus infected in A549 cells; type: toxicity, cell-based; details: read-out: Ratio CC50/IC50
Influenza A virus [5] = assay: Antiviral activity against […] influenza A H5N1 pseudotyped virus infected in A549 cells assessed as inhibition of viral entry incubated for 48 hrs by measuring luciferase activity by Neolite reporter gene assay; type: functional, organism-based; details: H5N1, A549, 48 h
[6] = tested on: Vesicular stomatitis virus; assay: Antiviral activity against VSV pseudotyped virus infected in A549 cells assessed as inhibition of viral entry incubated for 48 hrs by measuring luciferase activity by Neolite reporter gene assay; type: functional, organism-based; details: A549, 48 h
[7] = Selectivity index, ratio of CC50 for human A549 cells to IC50 for VSV pseudotyped virus infected in A549 cells; type: toxicity, cell-based; details: read-out: Ratio CC50/IC50
Influenza A virus [8] = assay: (§1) Antiviral activity against group 2 influenza A virus H3N2 (A/Hong Kong-11/1968) infected in MDCK cells infected with supernatant of compound treated virus-producing human A549 cells assessed as reduction in viral titer at 1 to 10 uM treated for 48 hrs with virus-producing human A549 cells followed by MDCK cells infection for 48 hrs by crystal violet staining based plaque assay; type: functional, organism-based; details: dose 1-10 µM, time 96.0 hrs
Influenza A virus [9] = assay: as §1, with “(A/Victoria/361/2011)” for “(A/Hong Kong-11/1968)”; type: functional, organism-based; details: dose 1-10 µM, time 96.0 hrs
Influenza A virus [10] = assay: Antiviral activity against group 2 influenza A virus H7N1 wild type; type: functional, organism-based

SMILES | IC50 (Influenza A virus [1]) | CC50 at 48 h [2] | selectivity ratio [3] | selectivity ratio [4] | IC50 (Influenza A virus [5]) | IC50 [6] | selectivity ratio [7] | Activity (Influenza A virus [8]) | Activity (Influenza A virus [9]) | IC50 (Influenza A virus [10])
Cc1cc(C)n2c(Nc3ccc4c(c3)OCCO4)c(-c3cccc(Br)c3)nc2n1 | 0.25 µM | > 100 µM | > 400 | – | – | – | – | – | – | –
CCCCOc1ccc(-c2nc3ncccn3c2NCc2nc[nH]c2C)cc1 | 100 µM | 100 µM | 1 | – | – | – | – | – | – | –
CCCCOc1ccc(-c2nc3ncccn3c2Nc2ccc(F)cc2)cc1 | 1.5 µM | > 100 µM | > 67 | – | – | – | – | – | – | –
Brc1ccc(-c2nc3ncccn3c2NC2CCCCC2)c(CN2CCOCC2)c1 | 9.9 µM | 54 µM | 5 | > 1 | 32 µM | 60 µM | < 1 | – | – | –
Oc1ccccc1-c1nc2ncccn2c1NC1CCCCC1 | 10 µM | > 100 µM | > 10 | – | – | – | – | – | – | –
Oc1cccc(-c2nc3ncccn3c2NC2CCCCC2)c1 | 10 µM | 100 µM | 10 | – | – | – | – | – | – | –
COCCOc1ccc(-c2nc3ncccn3c2NC2CCCCC2)cc1 | 0.08 µM | > 100 µM | > 1300 | – | – | – | – | – | – | –
CCOC(=O)CCCOc1ccc(-c2nc3ncccn3c2NC2CCCCC2)cc1 | 1.8 µM | > 100 µM | > 560 | – | – | – | – | – | – | –
Fc1ccc(COc2ccc(-c3nc4ncccn4c3NC3CCCCC3)cc2)cc1 | 0.26 µM | 24 µM | 92 | – | – | – | – | – | – | –
CCCCOc1ccc(-c2nc3ncccn3c2N2C(=O)c3cccc(O)c3C2=O)cc1 | 15 µM | > 100 µM | > 6.6 | – | – | – | – | – | – | –
Cc1cc(Br)ccc1-c1nc2ncccn2c1NC1CCCCC1 | 0.17 µM | 45 µM | – | – | 45 µM | 39 µM | – | Active | Active | –
COc1ccc(-c2nc3ncccn3c2NC2CCCCC2)cc1 | 0.037 µM | > 100 µM | – | – | > 100 µM | 100 µM | – | Active | Active | 0.019 µM
CCCCOc1ccc(-c2nc3ncccn3c2NCC2CC2)cc1 | 25 µM | > 100 µM | > 4 | – | – | – | – | – | – | –
Fc1ccc(-c2nc3ncccn3c2NC2CCCCC2)cc1 | 0.023 µM | 100 µM | – | – | 46 µM | 53 µM | – | Active | Active | –
CCNC(=O)CCCOc1ccc(-c2nc3ncccn3c2NC2CCCCC2)cc1 | 0.064 µM | > 100 µM | > 1600 | – | – | – | – | – | – | –
Cc1cc(Br)ccc1-c1nc2ncccn2c1Nc1ccccc1 | 2.2 µM | 40 µM | 18 | < 1 | > 100 µM | 100 µM | 1 | – | – | –
CC(C)(C)CC(C)(C)Nc1nc2ncccn2c1-c1ccc(Br)cc1 | 8.6 µM | > 100 µM | > 12 | – | – | – | – | – | – | –
CCCCOc1ccc(-c2nc3ncccn3c2NCc2ccco2)cc1 | 7.9 µM | 78 µM | 10 | – | – | – | – | – | – | –
CCCCOc1ccc(-c2nc3ncccn3c2NC2CCCCCC2)cc1 | 0.44 µM | 26 µM | 59 | – | – | – | – | – | – | –
CCCCOc1ccc(-c2nc3ncccn3c2NC(C)(C)CC(C)(C)C)cc1 | 2.3 µM | 29 µM | 13 | – | – | – | – | – | – | –
CC(C)(C)CC(C)(C)Nc1c(-c2ccc(Br)cc2)nc2ncccn12 | 1 µM | 32 µM | 32 | – | – | – | – | – | – | –
Cc1cc(C)n2c(NC3CCCCC3)c(-c3ccc(Br)cc3)nc2n1 | 0.36 µM | 32 µM | 51 | – | – | – | – | – | – | –
CCCCOc1ccc(-c2nc3ncccn3c2NCc2ccc3ccccc3c2)cc1 | 6 µM | 33 µM | 6 | – | – | – | – | – | – | –
Nc1nc2ncccn2c1-c1ccc(Br)cc1 | 100 µM | > 100 µM | > 1 | – | – | – | – | – | – | –
FC(F)(F)c1cc(Br)ccc1-c1nc2ncccn2c1NC1CCCCC1 | 1.4 µM | 25 µM | 18 | 1 | 20 µM | 24 µM | 1 | Active | Active | –
COCCOc1ccc(-c2nc3ncccn3c2Nc2ccccc2)cc1 | 5.2 µM | > 100 µM | > 19 | – | – | – | – | – | – | –
CCCCOc1ccc(-c2nc3ncccn3c2Nc2ccccc2)c(C)c1 | 4.5 µM | 23 µM | 5.1 | – | – | – | – | – | – | –

SMILES | IC50 (Influenza A virus [1]) | CC50 at 48 h [2] | selectivity ratio [3] | selectivity ratio [4] | IC50 (Influenza A virus [5]) | IC50 [6] | selectivity ratio [7] | Activity (Influenza A virus [8]) | Activity (Influenza A virus [9]) | IC50 (Influenza A virus [10])
CCCCOc1ccc(-c2nc3ncccn3c2NC(C)C)cc1 | 2.3 µM | 68 µM | 30 | – | – | – | – | – | – | –
Brc1ccc(-c2nc3ncccn3c2Nc2ccccc2)cc1 | 1.5 µM | > 100 µM | > 67 | – | – | – | – | – | – | –
CCCCOc1ccc(-c2nc3ncccn3c2NC2CCCCC2)cc1 | 0.67 µM | 52 µM | 78 | 1 | 84 µM | 36 µM | 2 | – | – | –
Nc1c(-c2ccc(Br)cc2)nc2ncccn12 | 100 µM | > 100 µM | > 1 | – | – | – | – | – | – | –
Clc1ccc(-c2nc3ncccn3c2NC2CCCCC2)cc1 | 0.15 µM | > 100 µM | > 670 | > 1 | > 100 µM | 36 µM | > 2 | Active | Active | –
O=C(O)CCCOc1ccc(-c2nc3ncccn3c2NC2CCCCC2)cc1 | 0.18 µM | > 100 µM | > 560 | – | – | – | – | – | – | –
CCCCOc1ccc(-c2nc3ncccn3c2NC2CCCCC2)c(C)c1 | 0.22 µM | 32 µM | 150 | – | – | – | – | – | – | –
Oc1ccc(-c2nc3ncccn3c2NC2CCCCC2)cc1 | 0.052 µM | > 100 µM | – | – | 36 µM | 65 µM | – | Active | Active | –
CCCCOc1ccc(-c2nc3ncccn3c2NCc2c[nH]cn2)cc1 | 38 µM | > 100 µM | > 3 | – | – | – | – | – | – | –
CCCCOc1ccc(-c2nc3ncccn3c2NCc2ccc(OC)cc2)cc1 | 14 µM | 55 µM | 4 | – | – | – | – | – | – | –
c1cnc2nc(-c3ccc(OC4CCCC4)cc3)c(NC3CCCCC3)n2c1 | 0.68 µM | 39 µM | 57 | – | – | – | – | – | – | –
CCCCOc1ccc(-c2c(NC(C)(C)CC(C)(C)C)nc3ncccn23)cc1 | 8.1 µM | 49 µM | 6 | – | – | – | – | – | – | –
COCCCCOc1ccc(-c2nc3ncccn3c2NC2CCCCC2)cc1 | 0.25 µM | 100 µM | 400 | 1 | 92 µM | 40 µM | 2 | Active | Active | –
COc1ccccc1-c1nc2ncccn2c1NC1CCCCC1 | 2.3 µM | > 100 µM | > 43 | < 1 | > 100 µM | > 100 µM | < 1 | – | – | –
CCCCOc1ccc(-c2nc3ncccn3c2N)cc1 | 100 µM | > 100 µM | > 1 | – | – | – | – | – | – | –
COc1ccccc1-c1nc2ncccn2c1N(C(C)=O)C1CCCCC1 | > 100 µM | > 100 µM | > 1 | – | – | – | – | – | – | –
CCCCOc1ccc(-c2nc3ncccn3c2Nc2ccccc2)cc1 | 100 µM | 100 µM | 1 | – | – | – | – | – | – | –
c1ccc(-c2nc3ncccn3c2NC2CCCCC2)cc1 | 0.66 µM | 100 µM | – | – | 46 µM | 74 µM | – | Active | Active | –
CCCCOc1ccc(-c2c(N)nc3ncccn23)cc1 | 58 µM | > 100 µM | > 1.7 | – | – | – | – | – | – | –
CN(c1c(-c2ccc(F)cc2)nc2ncccn12)C1CCCCC1 | 1.3 µM | > 100 µM | > 77 | – | – | – | – | – | – | –
CCCCOc1ccc(-c2nc3ncccn3c2NCC2CCCCC2)cc1 | 0.31 µM | 35 µM | 110 | – | – | – | – | – | – | –
CCCCOc1ccc(-c2nc3ncccn3c2NCCC)cc1 | 22 µM | > 100 µM | > 5 | – | – | – | – | – | – | –
CCOC(=O)C1=C[C@@H](OC(CC)CC)[C@H](NC(C)=O)[C@@H](N)C1 [OSELTAMIVIR] | – | – | – | – | – | – | – | Active | Active | –
CCCCOc1ccc(-c2nc3ncccn3c2NC2CCCC2)cc1 | 1.5 µM | 40 µM | 27 | – | – | – | – | – | – | –
CCCCOc1ccc(-c2nc3ncccn3c2NCc2ccccn2)cc1 | 16 µM | > 100 µM | > 6 | – | – | – | – | – | – | –
Brc1ccc(-c2nc3ncccn3c2NC2CCCCC2)cc1 | 0.2 µM | > 100 µM | – | – | > 100 µM | 42 µM | – | Active | Active | –
